Reference: ChEMBL document CHEMBL1629642, “In vitro efficacy of ST246 against smallpox and monkeypox” (Antimicrob Agents Chemother, 2009)
The source made the active and inactive calls. The calls are words filed in the database; no cut-off is given here.

Tests used:
Variola virus [1] = experiment: Antiviral activity against Variola virus NEP73-175 infected in african green monkey BSC-40 cells at 0.05 to 0.5 uM by IHC staining-based comet tail reduction assay; assay type: functional, organism-based
Monkeypox virus [2] = experiment: Antiviral activity against Monkeypox virus V78-I-3945 infected in african green monkey BSC-40 cells at 0.05 to 0.5 uM by IHC staining-based comet tail reduction assay; assay type: functional, organism-based
Monkeypox virus [3] = experiment: Antiviral activity against Monkeypox virus V81-I-179 infected in african green monkey BSC-40 cells at 0.05 to 0.5 uM by IHC staining-based comet tail reduction assay; assay type: functional, organism-based
Monkeypox virus [4] = experiment: Antiviral activity against Monkeypox virus 2003-USA-039 infected in african green monkey BSC-40 cells at 0.05 to 0.5 uM by IHC staining-based comet tail reduction assay; assay type: functional, organism-based
Monkeypox virus [5] = experiment: Antiviral activity against Monkeypox virus V77-I-823 infected in african green monkey BSC-40 cells at 0.05 to 0.5 uM by IHC staining-based comet tail reduction assay; assay type: functional, organism-based
Variola virus [6] = experiment: Antiviral activity against Variola virus BRZ66-39 infected in african green monkey BSC-40 cells at 0.015 uM by IHC staining-based comet tail reduction assay; assay type: functional, organism-based
Variola virus [7] = experiment: Antiviral activity against Variola virus BSH74-sol infected in african green monkey BSC-40 cells at 0.015 uM by IHC staining-based comet tail reduction assay; assay type: functional, organism-based
Variola virus [8] = experiment: Antiviral activity against Variola virus BRZ66-39 infected in african green monkey BSC-40 cells at 0.005 uM by IHC staining-based comet tail reduction assay; assay type: functional, organism-based
Variola virus [9] = experiment: Antiviral activity against Variola virus SUD47-juba infected in african green monkey BSC-40 cells at 0.005 uM by IHC staining-based comet tail reduction assay; assay type: functional, organism-based
Variola virus [10] = experiment: Antiviral activity against Variola virus SOM77-ali infected in african green monkey BSC-40 cells assessed as reduction in viral plaque formation at 0.015 uM uM by IHC staining-based plaque reduction assay; assay type: functional
Monkeypox virus [11] = experiment: Antiviral activity against Monkeypox virus V78-I-3945 infected in african green monkey BSC-40 cells assessed as reduction in viral plaque formation at 0.015 uM uM by IHC staining-based plaque reduction assay; assay type: functional
Variola virus [12] = experiment: Antiviral activity against Variola virus SOM77-ali infected in african green monkey BSC-40 cells at 0.005 uM by IHC staining-based comet tail reduction assay; assay type: functional, organism-based
Monkeypox virus [13] = experiment: Antiviral activity against Monkeypox virus 2003-USA-039 infected in african green monkey BSC-40 cells at 0.005 uM by IHC staining-based comet tail reduction assay; assay type: functional, organism-based
Monkeypox virus [14] = experiment: Antiviral activity against Monkeypox virus 2003-USA-039 infected in african green monkey BSC-40 cells assessed as reduction in viral plaque formation at 0.015 uM uM by IHC staining-based plaque reduction assay; assay type: functional
Variola virus [15] = experiment: Antiviral activity against Variola virus SUD47-juba infected in african green monkey BSC-40 cells at 0.005 uM uM by IHC staining-based plaque reduction assay; assay type: functional, organism-based
Monkeypox virus [16] = experiment: Antiviral activity against Monkeypox virus V78-I-3945 infected in african green monkey BSC-40 cells at 0.005 uM uM by IHC staining-based plaque reduction assay; assay type: functional, organism-based
Monkeypox virus [17] = experiment: Antiviral activity against Monkeypox virus V78-I-3945 infected in african green monkey BSC-40 cells assessed as reduction in virus-induced cytopathic effect at 0.05 to 5 uM; assay type: functional, organism-based
Variola virus [18] = experiment: Antiviral activity against Variola virus SUD47-juba infected in african green monkey BSC-40 cells at 0.015 uM assessed as reduction in virus-induced cytopathic effect; assay type: functional, organism-based
Monkeypox virus [19] = experiment: Antiviral activity against Monkeypox virus V78-I-3945 infected in african green monkey BSC-40 cells assessed as reduction in virus-induced cytopathic effect at 0.015 uM; assay type: functional, organism-based
Monkeypox virus [20] = experiment: Antiviral activity against Monkeypox virus V81-I-179 infected in african green monkey BSC-40 cells assessed as reduction in virus-induced cytopathic effect at 0.015 uM; assay type: functional, organism-based
Monkeypox virus [21] = experiment: Antiviral activity against Monkeypox virus V77-I-823 infected in african green monkey BSC-40 cells assessed as reduction in virus-induced cytopathic effect at 0.015 uM; assay type: functional, organism-based
Variola virus [22] = experiment: Antiviral activity against Variola virus BRZ66-39 infected in african green monkey BSC-40 cells at 0.005 uM assessed as reduction in virus-induced cytopathic effect; assay type: functional, organism-based
Variola virus [23] = experiment: Antiviral activity against Variola virus SLN68-258 infected in african green monkey BSC-40 cells at 0.005 uM assessed as reduction in virus-induced cytopathic effect; assay type: functional, organism-based
Variola virus [24] = experiment: Antiviral activity against Variola virus SUD47-juba infected in african green monkey BSC-40 cells at 0.005 uM assessed as reduction in virus-induced cytopathic effect; assay type: functional, organism-based
Variola virus [25] = experiment: Antiviral activity against Variola virus BSH74-sol infected in african green monkey BSC-40 cells at 0.005 uM assessed as reduction in virus-induced cytopathic effect; assay type: functional, organism-based
Monkeypox virus [26] = experiment: Antiviral activity against Monkeypox virus infected in african green monkey vero cells assessed as reduction in virus-induced cytopathic effect; assay type: functional, organism-based
Cowpox virus = experiment: Antiviral activity against Cowpox virus infected in african green monkey Vero cells assessed as reduction in virus-induced cytopathic effect; assay type: functional, organism-based
Ectromelia virus = experiment: Antiviral activity against Ectromelia virus infected in african green monkey Vero cells assessed as reduction in virus-induced cytopathic effect; assay type: functional, cell-based
Monkeypox virus [27] = experiment: Antiviral activity against Monkeypox virus V78-I-3945 infected in african green monkey BSC-40 cells assessed as reduction in virus-induced cytopathic effect; assay type: functional, organism-based; conditions: V78-I-3945, BSC-40
Monkeypox virus [28] = experiment: Antiviral activity against Monkeypox virus V77-I-823 infected in african green monkey BSC-40 cells assessed as reduction in virus-induced cytopathic effect; assay type: functional, organism-based; conditions: V77-I-823, BSC-40
Variola virus [29] = experiment: Antiviral activity against Variola virus BRZ66-39 infected in african green monkey BSC-40 cells at 0.05 to 0.5 uM by IHC staining-based plaque reduction assay; assay type: functional, organism-based
Variola virus [30] = experiment: Antiviral activity against Variola virus SLN68-258 infected in african green monkey BSC-40 cells at 0.05 to 0.5 uM by IHC staining-based plaque reduction assay; assay type: functional, organism-based
Variola virus [31] = experiment: Antiviral activity against Variola virus BSH74-sol infected in african green monkey BSC-40 cells at 0.05 to 0.5 uM by IHC staining-based plaque reduction assay; assay type: functional, organism-based
Variola virus [32] = experiment: Antiviral activity against Variola virus SOM77-ali infected in african green monkey BSC-40 cells at 0.05 to 0.5 uM by IHC staining-based plaque reduction assay; assay type: functional, organism-based
Monkeypox virus [33] = experiment: Antiviral activity against Monkeypox virus V1979-I-005 infected in african green monkey BSC-40 cells at 0.05 to 0.5 uM by IHC staining-based plaque reduction assay; assay type: functional, organism-based
Variola virus [34] = experiment: Antiviral activity against Variola virus SLN68-258 infected in african green monkey BSC-40 cells assessed as reduction in viral plaque formation at 0.015 uM uM by IHC staining-based plaque reduction assay; assay type: functional
Variola virus [35] = experiment: Antiviral activity against Variola virus SUD47-juba infected in african green monkey BSC-40 cells assessed as reduction in viral plaque formation at 0.015 uM uM by IHC staining-based plaque reduction assay; assay type: functional

`O=C(NN1C(=O)[C@@H]2[C@@H]3C=C[C@@H]([C@H]4C[C@@H]34)[C@@H]2C1=O)c1ccc(C(F)(F)F)cc1` [TECOVIRIMAT] was tested. Which Activity (Variola virus [1]) did it give?
The Activity was “Active”.

What about the Activity (Monkeypox virus [2]) of the same compound?
Its Activity is “Active”.

And the Activity (Monkeypox virus [3])?
The Activity was “Active”.

What about the Activity (Monkeypox virus [4]) of the same compound?
Its Activity is “Active”.

What about the Activity (Monkeypox virus [5]) of the same compound?
The Activity was “Active”.

What about the Activity (Variola virus [6]) of the same compound?
Its Activity is “Active”.

And the Activity (Variola virus [7])?
The Activity was “Active”.

And the Activity (Variola virus [8])?
Its Activity is “inactive”.

And the Activity (Variola virus [9])?
Its Activity is “inactive”.

What about the “inhibition (INH)” value (Variola virus [10]) of the same compound?
Its value is 50%.

And the “inhibition (INH)” value (Monkeypox virus [11])?
Its value is 50%.

And the Activity (Variola virus [12])?
Its Activity is “inactive”.

And the Activity (Monkeypox virus [13])?
Its Activity is “inactive”.

What about the “inhibition (INH)” value (Monkeypox virus [14]) of the same compound?
Its value is 50%.

And the Activity (Variola virus [15])?
Its Activity is “inactive”.

And the Activity (Monkeypox virus [16])?
The Activity was “inactive”.

And the Activity (Monkeypox virus [17])?
The Activity was “Active”.

What about the Activity (Variola virus [18]) of the same compound?
The Activity was “Active”.

And the Activity (Monkeypox virus [19])?
The Activity was “Active”.

What about the Activity (Monkeypox virus [20]) of the same compound?
Its Activity is “Active”.

What about the Activity (Monkeypox virus [21]) of the same compound?
The Activity was “Active”.

What about the Activity (Variola virus [22]) of the same compound?
The Activity was “inactive”.

And the Activity (Variola virus [23])?
Its Activity is “inactive”.

What about the Activity (Variola virus [24]) of the same compound?
Its Activity is “inactive”.

And the Activity (Variola virus [25])?
Its Activity is “inactive”.

And the Activity (Monkeypox virus [26])?
The Activity was “Active”.

And the Activity (Cowpox virus)?
Its Activity is “Active”.

And the Activity (Ectromelia virus)?
The Activity was “Active”.

And the EC50 (Monkeypox virus [27])?
The EC50 was 23 nM.

What about the EC50 (Monkeypox virus [28]) of the same compound?
Its EC50 is 30 nM.

And the Activity (Variola virus [29])?
The Activity was “Active”.

And the Activity (Variola virus [30])?
The Activity was “Active”.

What about the Activity (Variola virus [31]) of the same compound?
The Activity was “Active”.

And the Activity (Variola virus [32])?
The Activity was “Active”.

And the Activity (Monkeypox virus [33])?
The Activity was “Active”.

And the “inhibition (INH)” value (Variola virus [34])?
Its value is 50%.

What about the “inhibition (INH)” value (Variola virus [35]) of the same compound?
The value was 50%.
